In patent US11098257B2, “Bioderived fuels and methods of making the same” (Alliance for Sustainable Energy, LLC, priority 2019, dated 2021):
≈ marks a conversion by molar mass, not a printed value.

Tests used:
Assay type in all cases: physicochemical
[1] = Storage stability aging per ASTM D4625, GC-MS profile; details: GC-MS profile after 6 weeks of aging (simulating 6 months)
Experimental: Storage stability testing. Aging conditions to test storage stability of the target ether are based on the procedure of ASTM D4625 Standard Test Method for Middle Distillate Fuel Storage Stability. This method accelerates the oxidation rate of diesel fuel by approximately 4-fold, with one week under these conditions equivalent to approximately one month of storage at 21° C. It should be noted that this degree of acceleration has not been validated for ethers, but nonetheless provides a standard protocol for diesel range sample aging. Aging was conducted for 6 weeks (simulating 6 months) with measurement of peroxide concentration at 2-week intervals. Peroxide concentration was measured following AOCS method Cd 8b-90, modified for potentiometric end point detection and smaller sample size. A sample of isoamyl ether (>99%, non-stabilized, Sigma-Aldrich) was aged alongside the 4-butoxyheptane for comparison. Samples of 4-butoxyheptane before and after aging were analyzed by gas chromatography with mass spectrometry (GC-MS) in an attempt to identify components produced by oxidation (see Table 11 below). The ether samples were diluted volumetrically in acetone 1:10. Analysis was conducted with an Agilent 7890A GC coupled with an Agilent 5975C mass selective detector (MSD). […]

[2] = Water solubility, ether in aqueous layer by GC/MS; details: thermodynamic from solid; purified ether, water saturated 1:5 by volume, left overnight
Experimental: Water Solubility. […] The mixed samples were left overnight to separate and the amount of ether in the aqueous layer was determined by GC/MS.

[3] = Rapid small-scale oxidation test (RSSOT), PetroOxy induction time
Experimental: The next important consideration is that of safety and fuel quality upon storage of the novel blendstock. Oxidation stability of 4-butoxyheptane was examined experimentally. Two distinct characterizations were performed regarding oxidation potential during storage. The first utilized a rapid small-scale oxidation test (RSSOT) using a PetroOxy instrument to determine induction time, which indicates the potential for a fuel to oxidize during storage, which may result in quality degradation from formation of low molecular weight acids and insoluble polymers.

Flash point measurement = details: measured value
Experimental: Flash point. D7094 was used to measure Tflash with an average error of ±1.3° C.

[4] = Boiling point (simulated distillation T90 D2887; blend by TGA); details: measured value
Text: Boiling Point. Tboil of pure was estimated using T90 of a simulated distillation (D2887), with blend Tboil determined using thermogravimetric analysis (TGA).

[5] = Lower heating value from bomb calorimeter HHV (D240) and hydrogen content; details: measured value
Experimental: Heating Values. HHV was found using a bomb calorimeter to combust 15 mL of sample (D240), with LHV calculated using sample hydrogen content (D240, Section 10.5.1) measured using a LECO TruSpec CHN determinator. To find hydrogen content, samples were combusted in excess oxygen at 950° C. The amount of CO2 and H2O produced could then be quantified using IR and using an EDTA calibration standard the hydrogen wt % could be extracted.

Flashpoint (Flash point measurement) [°C] | Boiling Point [4] [°C] | Lower Heating Value [5] [mJ/kg] | Structure (SMILES) | % Total Area [1] [%] | solubility [2] [µg/mL] | induction period ([3]; neat ether, no antioxidant) | induction period with antioxidant ([3]; with 100 ppm butylated hydroxytoluene (BHT)) [min] | Lower Heating Value ([5]; listed as drawing 5) [mJ/kg]
68 | 234 | 43 | CCCCCCOC(CCC)CCC [4-hexoxyheptane] |  |  |  |  | 
83 | 236 | 42 | CCCCCC(CCCCC)OCC [6-ethoxyundecane] |  |  |  |  | 

Structure (SMILES) | Flashpoint (Flash point measurement) [°C] | Boiling Point [4] [°C] | Lower Heating Value [5] [mJ/kg] | % Total Area [1] [%] | solubility [2] [µg/mL] | induction period ([3]; neat ether, no antioxidant) | induction period with antioxidant ([3]; with 100 ppm butylated hydroxytoluene (BHT)) [min] | Lower Heating Value ([5]; listed as drawing 5) [mJ/kg]
CCCCOC(CCC)CCC [4-butoxyheptane] | 64 | 198 | 39.2 | 94.90 | 15 (≈ 87.1 µM) | about 23 minutes | > 60 | 39
